In article PMC5443610 (Journal of Medicinal Chemistry, 2017):
pIC50, pKd: −log10 of the molar value. ≈ marks a conversion by molar mass, not a printed value. Values belong to the compound of their own block, whether it stands above or below them.

Experiments:
BRPF1 BD = target: T1, BRPF1 BD (Homo sapiens, UniProt P55201); assay: TR-FRET binding competition assay
T1 sequence (P55201 626-740): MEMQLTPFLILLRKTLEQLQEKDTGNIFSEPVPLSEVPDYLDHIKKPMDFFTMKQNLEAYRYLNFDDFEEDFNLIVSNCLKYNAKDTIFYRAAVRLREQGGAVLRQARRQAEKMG

BRPF3 BD = target: T2, BRPF3 BD (Homo sapiens, UniProt Q9ULD4); assay: TR-FRET binding competition assay
T2 sequence (Q9ULD4 592-711): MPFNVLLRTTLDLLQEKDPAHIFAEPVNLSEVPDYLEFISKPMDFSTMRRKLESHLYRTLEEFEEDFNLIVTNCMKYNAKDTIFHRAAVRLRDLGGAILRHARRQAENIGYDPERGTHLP

TAF1L BD2 = target: T3, TAF1L BD2 (Homo sapiens, UniProt Q8IZX4); assay: biochemical; assay type: binding
T3 sequence (Q8IZX4 1517-1649): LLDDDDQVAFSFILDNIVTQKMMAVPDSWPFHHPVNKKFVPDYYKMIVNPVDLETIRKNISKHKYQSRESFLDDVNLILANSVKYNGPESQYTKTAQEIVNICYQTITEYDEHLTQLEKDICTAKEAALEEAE

BRPF1 = target: T4, BRPF1 (Homo sapiens, UniProt P55201); assay: AlphaScreen; assay type: binding
T4 sequence (P55201 628-732 limits assumed): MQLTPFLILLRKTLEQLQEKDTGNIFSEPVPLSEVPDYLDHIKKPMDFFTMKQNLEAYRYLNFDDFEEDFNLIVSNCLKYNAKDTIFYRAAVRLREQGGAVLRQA

BRPF3 = target: T5, BRPF3 (Homo sapiens, UniProt Q9ULD4); assay: AlphaScreen; assay type: binding
T5 sequence (Q9ULD4 589-693 limits assumed): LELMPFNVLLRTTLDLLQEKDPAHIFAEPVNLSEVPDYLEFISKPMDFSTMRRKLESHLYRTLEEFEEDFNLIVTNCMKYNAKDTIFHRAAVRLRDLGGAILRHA

CREBBP = CREBBP (Homo sapiens, UniProt Q92793); assay: AlphaScreen; assay type: binding
CREBBP BD = CREBBP BD (Homo sapiens, UniProt Q92793); assay: Isothermal titration calorimetry; assay type: binding
BRPF1 BD/H4 = target: T6, BRPF1 BD/H4 (Homo sapiens, UniProt P55201); assay: NanoBRET cellular assay; assay type: cell-based
T6 sequence (P55201 626-732): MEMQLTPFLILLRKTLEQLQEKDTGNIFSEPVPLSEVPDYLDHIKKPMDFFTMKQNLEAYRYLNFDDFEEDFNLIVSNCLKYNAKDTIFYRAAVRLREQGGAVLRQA

[1] = test system: panel containing over 300 kinases; assay: Kinase panel; assay type: biochemical; settings: 10 μM, all cases
68 potential targets = assay: LeadProfilingScreen; settings: 10 μM compound
[2] = Metabolic stability in liver microsomes; assay type: in vitro ADME; settings: mouse liver microsomes
[3] = Metabolic stability in liver microsomes; assay type: in vitro ADME; settings: rat liver microsomes
[4] = Metabolic stability in liver microsomes; assay type: in vitro ADME; settings: dog liver microsomes
[5] = Metabolic stability in liver microsomes; assay type: in vitro ADME; settings: human liver microsomes
[6] = Metabolic stability in hepatocytes; assay type: in vitro ADME; settings: rat hepatocytes
Caco2 permeability assay = assay type: in vitro ADME; settings: human, Caco-2, pH 7.2, Caco2 Papp (B-A), 2 μM, 2 h
[7] = In vivo rat pharmacokinetics; design: species or system Wistar rat
Caco2 cells = assay: Caco2 permeability assay; assay type: in vitro ADME
[8] = Reversed-phase HPLC lipophilicity; assay type: physicochemical; settings: pH 7.5
[9] = High-throughput aqueous solubility from DMSO solution; assay type: physicochemical; settings: pH 6.5 buffer
BRPF2 BD/H4 = target: T7, BRPF2 BD/H4 (Homo sapiens, UniProt O95696); assay: NanoBRET cellular assay; assay type: cell-based; settings: HCT116 cells
T7 sequence (O95696 560-666): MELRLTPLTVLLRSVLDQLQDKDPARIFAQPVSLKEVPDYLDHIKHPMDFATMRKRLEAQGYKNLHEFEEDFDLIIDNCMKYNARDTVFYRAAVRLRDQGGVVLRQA

BRD4 BDs = BRD4 BDs (Homo sapiens, UniProt O60885); assay: AlphaScreen; assay type: binding
panel of 22 kinases = assay: Panel of 22 kinases; assay type: biochemical; settings: data not shown

Sequence of CREBBP (Q92793 1081-1197): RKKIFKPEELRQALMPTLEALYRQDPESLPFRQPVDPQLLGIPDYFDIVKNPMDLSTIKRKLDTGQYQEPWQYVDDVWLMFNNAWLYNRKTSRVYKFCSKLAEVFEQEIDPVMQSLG
Sequence of CREBBP BD (Q92793 1081-1197): as above

pIC50 (BRPF1 BD; BRPF1 IC50, TR-FRET): 5.50
pIC50 (BRPF3 BD): 5.26
pIC50 (TAF1L BD2): 6.97
pIC50 (BRPF1): 5.64
pIC50 (BRPF3): 5.61
pIC50 (CREBBP): 5.77
pKd (CREBBP BD): 5.86
pIC50 (BRPF1 BD/H4): < 5.00
inhibition in kinase panel [1]: less than 50%
CLblood [2]: 0.19 L/h/kg
CLblood [3]: 0.15 L/h/kg
CLblood [4]: < 24 mL/day/kg
Fmax [4]: 100%
CLblood [5]: < 24 mL/day/kg
Fmax [5]: 100%
CLblood [6]: 3.8 L/h/kg
Papp B→A at 2 h, 2 μM (Caco2 permeability assay): 19.1 ×10⁻⁶ cm/s
blood clearance as share of hepatic blood flow [7]: ca. 17%
CLblood ([7]; in vivo): 0.73 L/h/kg
Structure (SMILES): Cc1cc2c(cc1N1C(=O)c3cccc4c(CCCO)ccc(c34)C1=O)n(C)c(=O)n2C (racemic) [Compound 5, 6-(3-Hydroxypropyl)-2-(1,3,6-trimethyl-2-oxo-2,3-dihydro-1H-benzimidazol-5-yl)-1H-benzo[de]isoquinoline-1,3(2H)-dione]
inhibition or stimulation in LeadProfilingScreen (68 potential targets): ≤ 25%

pIC50 (BRPF1 BD; BRPF1 IC50, TR-FRET): 5.23
Structure (SMILES): Cc1cc2c(cc1N1C(=O)c3cccc4c(CCCO)ccc(c34)C1=O)n(C)c(=O)n2C (single isomer, unassigned) [atropisomer 1, (−)-6-(3-Hydroxypropyl)-2-(1,3,6-trimethyl-2-oxo-2,3-dihydro-1H-benzimidazol-5-yl)-1H-benzo[de]isoquinoline-1,3(2H)-dione]

pIC50 (BRPF1 BD; BRPF1 IC50, TR-FRET): 5.26
Structure (SMILES): Cc1cc2c(cc1N1C(=O)c3cccc4c(CCCO)ccc(c34)C1=O)n(C)c(=O)n2C (single isomer, unassigned) [atropisomer 2, (+)-6-(3-Hydroxypropyl)-2-(1,3,6-trimethyl-2-oxo-2,3-dihydro-1H-benzimidazol-5-yl)-1H-benzo[de]isoquinoline-1,3(2H)-dione]

pIC50 (BRPF1 BD; BRPF1: inactive up to concentration, TR-FRET, HTS hit dose-response): < 4.70
pIC50 (BRPF3 BD): < 4.70
permeability profile in Caco2 cells (Caco2 cells): excellent permeability profile
chromatographic logD [8]: 2.1
solubility at 24 h [9]: 3.7 µg/mL (≈ 10.4 µM)
Structure (SMILES): Cn1c(=O)n(C)c2cc(N3C(=O)c4cccc5cccc(c45)C3=O)ccc21 [Compound 6]

pIC50 (BRPF2 BD/H4): 6.33
Structure (SMILES): Cc1cc2c(cc1N1C(=O)c3cccc4cccc(c34)C1=O)n(C)c(=O)n2C [Compound 7, 2-(1,3,6-Trimethyl-2-oxo-2,3-dihydro-1H-benzimidazol-5-yl)-1H-benzo[de]isoquinoline-1,3(2H)-dione]

cellular activity for BRPF1 (BRPF1 BD/H4; NanoBRET): no activity
Structure (SMILES): Cc1cc2c(cc1N1C(=O)c3cccc4c(Cl)ccc(c34)C1=O)n(C)c(=O)n2C [Compound 13, 6-Chloro-2-(1,3,6-trimethyl-2-oxo-2,3-dihydro-1H-benzimidazol-5-yl)-1H-benzo[de]isoquinoline-1,3(2H)-dione]

activity for BRPF3 (BRPF3; AlphaScreen): no activity
activity for BRD4 BDs (BRD4 BDs): no activity
Structure (SMILES): Cn1c(=O)[nH]c2cc(N3C(=O)c4cccc5c(CCCO)ccc(c45)C3=O)ccc21 [Compound 31, 6-(3-Hydroxypropyl)-2-(1-methyl-2-oxo-2,3-dihydro-1H-benzimidazol-5-yl)-1H-benzo[de]isoquinoline-1,3(2H)-dione]
no activity up to, panel of 22 kinases (panel of 22 kinases): > 10 µM
